The source of these data is PMC7034112, “Bioorganometallic derivatives of 4-hydrazino-benzenesulphonamide as carbonic anhydrase inhibitors: synthesis, characterisation and biological evaluation” (Journal of Enzyme Inhibition and Medicinal Chemistry, 2020).

Common to all, as to experiment: stopped-flow CO2 hydrase assay
Common to all, as to format: biochemical
Common to all, as to details: CO2 […], […] Hepes pH […] Na2SO4, […] h preincubation at room temperature

For assay [1], the target named is T1, hCA XII (Homo sapiens, UniProt O43570).
T1 construct: gene CA12; recombinant, obtained in-house
From the text: stopped-flow CO2 hydrase assay on hCA XII

The target of assay [2] is T2, hCA I (Homo sapiens, UniProt P00915).
T2 construct: gene CA1; recombinant, obtained in-house
An excerpt: stopped-flow CO2 hydrase assay on hCA I

The target of assay [3] is T3, hCA II (Homo sapiens, UniProt P00918).
T3 construct: gene CA2; recombinant, obtained in-house
From the text:
stopped-flow CO2 hydrase assay on hCA II

For assay [4], the target named is T4, hCA IX (Homo sapiens, UniProt Q16790).
T4 construct: gene CA9; recombinant, obtained in-house
An excerpt:
stopped-flow CO2 hydrase assay on hCA IX

T2 sequence (P00915 2-261): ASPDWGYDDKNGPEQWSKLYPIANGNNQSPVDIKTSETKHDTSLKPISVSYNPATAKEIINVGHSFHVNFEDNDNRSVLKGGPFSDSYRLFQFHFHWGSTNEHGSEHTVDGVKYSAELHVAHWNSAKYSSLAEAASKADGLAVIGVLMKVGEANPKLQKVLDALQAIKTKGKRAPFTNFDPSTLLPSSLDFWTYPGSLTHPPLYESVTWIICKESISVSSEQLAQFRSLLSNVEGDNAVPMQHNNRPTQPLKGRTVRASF
T1 sequence (O43570 25-354): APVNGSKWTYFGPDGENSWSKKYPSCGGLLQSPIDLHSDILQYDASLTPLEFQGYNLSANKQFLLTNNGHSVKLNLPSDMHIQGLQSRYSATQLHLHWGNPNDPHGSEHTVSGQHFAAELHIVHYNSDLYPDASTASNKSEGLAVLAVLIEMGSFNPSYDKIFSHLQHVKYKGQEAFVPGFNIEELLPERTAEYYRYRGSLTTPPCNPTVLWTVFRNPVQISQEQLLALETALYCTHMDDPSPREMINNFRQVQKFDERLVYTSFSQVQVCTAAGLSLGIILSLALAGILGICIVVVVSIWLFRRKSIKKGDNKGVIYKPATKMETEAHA

The Ki is a measure of affinity in units of concentration, obtained from inhibition or displacement. For the substance “[{(η^5-C5H4)-C(CH3)=N-N(H)-C6H4-4-SO2NH2}]FeCp [3b]”, the Ki in assay [1] was found to be 1.9 nM; in assay [2], 3.6 nM; in assay [3], 9.3 nM; in assay [4], 41.9 nM.
In the case of “[{(η^5-C5H4)-C(CH3)=N–N(H)-C6H4-4-SO2NH2}]Mn(CO)3 [2b]”, the inhibitory constant (Ki) in assay [1] turned out to be 3.3 nM; in assay [2], 269 nM; in assay [3], 11.2 nM; in assay [4], 221 nM.
Regarding “[{(η^5-C5H4)-C(CH3)=N–N(H)-C6H4-4-SO2NH2}]re(CO)3 [1b]”, the Ki in assay [1] was 3.8 nM; in assay [2] it was 3.7 nM; in assay [3], 9.7 nM; in assay [4] it was 25 nM.
“[{(η^5-C5H4)-CH=N–N(H)-C6H4-4-SO2NH2}]FeCp [3a]”: the Ki in assay [1] was 4.9 nM; in assay [2], 13.2 nM; in assay [3] it was 1.7 nM; in assay [4] it was 49.9 nM.
Taken in the same sequence, the figures for “[{(η^5-C5H4)-CH=N–N(H)-C6H4-4-SO2NH2}]Mn(CO)3 [2a]” were 3.1 nM, 5.9 nM, 8.2 nM and 2.1 nM.
With “[{(η^5-C5H4)-CH=N–N(H)-C6H4-4-SO2NH2}]re(CO)3 [1a]”, the Ki was 24.4 nM in assay [1], 7.5 nM in assay [2], 22.4 nM in assay [3] and 580 nM in assay [4].
